Data set [1] can be described thus: Stability in liver microsome of dogs. It is filed as in vitro ADME. Conditions: Dog liver microsome 0.5 mg protein/mL, compound 1 μM, 37° C.; for half-life at 1 μM / microsomal CLint at 1 μM: liver microsomes. The protocol: Assay 1: Stability assessment of the compounds of the present invention in liver microsome of mice and dogs
Test substances: the compounds of the present invention, wherein the structures and preparations thereof were as described above.
The composition of the incubation system:
Preparation of Test Substances:
An appropriate amount of the compound was accurately weighed and dissolved in DMSO to prepare a 5.0 mM stock solution. The 5.0 mM stock solution was diluted to 1.0 mM with DMSO, and finally diluted with water to a 10 μM test substance working solution for use (the DMSO content in the reaction system was 0.1%).
(1) The liver microsome (20 mg protein/mL) was taken out from the −80° C. refrigerator, pre-incubated at 37° C. with a water-bathing constant temperature vibrator for 3 minutes, and melted for use.
(2) A mixed solution of the incubation system (excluding compounds and β-NADPH) according to the above “composition of the incubation system” for the assay was prepared, and pre-incubated at 37° C. with a water-bathing constant temperature vibrator for 2 minutes.
(3) Control group (excluding β-NADPH): 30 μL of water and 30 μL of compound working solution (10 μM) were added to 240 μL of the mixed solution of the incubation system of step (2), and vortexed for 30 seconds to mix well. The total reaction volume was 300 μL. A duplicate sample was prepared. The sample was incubated at 37° C. with a water-bathing constant temperature vibrator. The timekeeping began and the sampling time points were set at 0 minute and 60 minutes.
(4) Sample group: 70 μL of β-NADPH solution (10 mM) and 70 μL of compound working solution (10 μM) were added to 560 μL of the mixed solution of step (2). The total reaction volume was 700 μL. The resulting mixture was vortexed for 30 seconds to mix well. A duplicate sample was prepared. The sample was incubated at 37° C. with a water-bathing constant temperature vibrator. The timekeeping began and the sampling time points were set at 0 minute, 5 minutes, 10 minutes, 20 minutes, 30 minutes, and 60 minutes after timekeeping.
(5) After vortexing for 3 minutes, the sample was centrifuged at 4000 rpm for 10 minutes.
(6) 50 μL of the supernatant was taken and 150 μL of water was added. The resulting mixture was vortexed to mix well, and analyzed by LC/MS/MS.
The half-life (t1/2) and clearance rate (Cl) were calculated using the following first-order kinetic formula:
Vd=1/protein content in liver microsome
Note: k was the slope of the logarithm of the remaining amount of the compound versus time, and Vd was the apparent distribution volume.
A general note: Microsomes from liver hold many membrane-bound enzymes, among them those of drug oxidation.

The target in the next data set is T1, H1299 cell pMer (Homo sapiens, UniProt Q12866).
T1 construct: The H1299 cells were inoculated in a 6-well plate; endogenous in cells; host or cells: H1299
T1 sequence (Q12866 21-999): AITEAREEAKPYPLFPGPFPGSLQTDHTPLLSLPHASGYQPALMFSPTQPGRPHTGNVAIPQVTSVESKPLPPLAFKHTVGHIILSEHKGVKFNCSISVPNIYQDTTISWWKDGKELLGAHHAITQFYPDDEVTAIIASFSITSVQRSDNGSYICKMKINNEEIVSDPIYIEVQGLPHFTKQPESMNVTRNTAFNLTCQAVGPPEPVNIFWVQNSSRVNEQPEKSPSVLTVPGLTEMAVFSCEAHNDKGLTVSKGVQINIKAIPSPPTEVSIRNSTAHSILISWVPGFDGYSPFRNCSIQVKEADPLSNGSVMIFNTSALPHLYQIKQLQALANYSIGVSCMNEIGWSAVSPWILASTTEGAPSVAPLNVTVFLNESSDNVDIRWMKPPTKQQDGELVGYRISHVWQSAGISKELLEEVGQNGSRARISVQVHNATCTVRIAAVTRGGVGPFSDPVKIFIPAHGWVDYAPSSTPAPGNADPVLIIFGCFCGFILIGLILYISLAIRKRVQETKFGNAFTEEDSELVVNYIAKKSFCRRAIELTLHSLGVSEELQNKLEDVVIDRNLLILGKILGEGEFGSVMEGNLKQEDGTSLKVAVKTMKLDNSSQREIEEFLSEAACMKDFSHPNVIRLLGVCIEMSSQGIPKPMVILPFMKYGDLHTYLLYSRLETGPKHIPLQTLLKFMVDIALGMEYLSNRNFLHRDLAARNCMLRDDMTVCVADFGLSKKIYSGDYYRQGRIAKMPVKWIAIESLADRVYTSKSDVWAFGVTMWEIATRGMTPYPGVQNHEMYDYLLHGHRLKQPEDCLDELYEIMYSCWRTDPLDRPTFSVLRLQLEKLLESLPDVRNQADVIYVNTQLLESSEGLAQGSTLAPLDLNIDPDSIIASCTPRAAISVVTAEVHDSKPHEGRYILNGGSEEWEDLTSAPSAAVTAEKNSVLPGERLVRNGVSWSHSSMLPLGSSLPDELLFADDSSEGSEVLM
Put plainly: Inhibitory activity on the cell pMer (Western Blot). Type of data set: cell-based. Conditions: H1299 cells, compound 0.35, 1.1, 3.3, 10 nM, Human MerMab 200 ng/mL. How it is done:
Assay 6: Test for Inhibitory Activities of the Compounds of the Present Invention on the Cell pMer
H1299 is a non-small cell lung cancer cell.
Test substances: the compounds of the present invention, wherein the structures thereof were as described above.
Test equipment: protein electrophoresis apparatus (manufactured by Bio Rad), transfer unit (manufactured by Bio Rad), exposure unit (manufactured by Tanon), CO2 cell incubator (manufactured by Thermo).
The H1299 cells were inoculated in a 6-well plate (containing 10% FBS 1640 medium, 5×10^5 cells per well), and adherent cells were cultivated at 37° C. in a 5% CO2 condition for 18 hours. The cells were starved overnight. Different concentrations of compounds were added. The final compound concentrations were 0.35, 1.1, 3.3 and 10 nM, and the final DMSO content was 1‰. The negative control wells contained the medium containing 1‰ DMSO. After incubating at 37° C. in a 5% CO2 condition for 60 minutes, Human MerMab (R&D, final concentration 200 ng/mL) was added to each well. After further incubating for 60 minutes, the cell total protein was extracted for Western Blot and the IC50 values were calculated using GraphPad 5.0 software. The inhibitory activity of the compound on the cell pMer was examined.

From patent US20220073496A1, “NOVEL QUINOLINE DERIVATIVE INHIBITOR” (Nanjing Transthera Biosciences Co., Ltd., priority 2018, published 2022) come the findings set out here.

The term IC50 denotes the concentration at which inhibition is half-maximal. A lower IC50 goes with inhibition by little substance. One may read the half-life as how long it takes for the measured level to halve. Read a high half-life as slow decline. A word on the microsomal CLint: it is a measure of how fast metabolising enzymes remove a compound, apart from limits set by blood flow. Lower therefore signals slow turnover.

Turning to `COc1cc2nccc(Oc3ccc(NC(=O)c4cn(C5CC5)nc(-c5ccc(F)cc5)c4=O)nc3)c2cc1OC` [Compound 42, 2-cyclopropyl-N-(5--((6,7-dimethoxyquinolin-4-yl)oxy)pyridin-2-yl)-6-(4-fluorophenyl)-5-oxo-2,5-dihydropyridazine-4-carboxamide], the t1/2 result in data set [1] is “→∞”. The compound also came in with an IC50 on H1299 cell pMer below 1.1 nM.
In data set [1], `COc1cc2nccc(Oc3ccc(NC(=O)c4nn(C5CC5)cc(-c5ccc(F)cc5)c4=O)cn3)c2cc1OC` [Compound 36] yielded a half-life at 1 μM of 1.93 h and a microsomal CLint at 1 μM of 12 µL/min/mg. Also, on H1299 cell pMer, the IC50 was below 0.35 nM.
On to `COc1cc2nccc(Oc3ccc(NC(=O)c4cn(C(C)C)cc(-c5ccc(C)cc5)c4=O)nc3)c2cc1OC` [Compound 1, N-(5-((6,7-dimethoxyquinolin-4-yl)oxy)pyridin-2-yl)-1-isopropyl-4-oxo-5-p-tolyl-1,4-dihydropyridin-3-carboxamide], for which, in data set [1], the half-life at 1 μM turned out to be 0.21 h and the microsomal CLint at 1 μM amounted to 110 µL/min/mg. At H1299 cell pMer, this compound yielded an IC50 of 1.1 to 3.3 nM.
Regarding `COc1cc2nccc(Oc3cnc(NC(=O)c4cn(C(C)C)nc(-c5ccc(F)cc5)c4=O)nc3)c2cc1OC` [Compound 39, N-(5-((6,7-dimethoxyquinolin-4-yl)oxy)pyrimidine-2-yl)-6-(4-fluorophenyl)-2-isopropyl-5-oxo-2,5-dihydropyridazine-4-carboxamide], the t1/2 entry in data set [1] is “→∞”. The IC50 at H1299 cell pMer stood at 1.1 nM.
In data set [1], `COc1cc2nccc(Oc3ccc(NC(=O)c4cn(C(C)C)cc(-c5ccc(F)cc5)c4=O)nc3)c2cc1OC` [Compound 14, N-(5-((6,7-dimethoxyquinolin-4-yl)oxy)pyridin-2-yl)-5-(4-fluorophenyl)-1-isopropyl-4-oxo-1,4-dihydropyridin-3-carboxamide] yielded a half-life at 1 μM of 2.57 h and a microsomal CLint at 1 μM of 9 µL/min/mg. For the same compound, the IC50 at H1299 cell pMer was 0.35 nM.
